# Test results from patent publication US4668690A, “1,2,3,4,4a,9b-hexahydro-4a-aminoalkyldibenzofurans useful as analgesics, anticonvulsants or antidepressants” (Hoechst Roussel Pharmaceuticals Inc., priority 1985, dated 1987).
# Structures can show the parent of a compound that is named as a salt. Where two headings read alike, the source gives them in different places.
# Experiments:
# [1] = tested on: supra maximal electroshock (extensor tonus); test: supra maximal electroshock assay (anticonvulsant); type: in vivo, male mice (Charles River, CD-1); settings: for ED50: Mus musculus, sc, read-out: ED50, anticonvulsant effect (supra maximal electroshock)
# [2] = tested on: phenyl-para-quinone induced writhing; test: phenyl-para-quinone writhing assay in mice (analgesia); type: in vivo; settings: for inhibition in vivo at 25 mg/kg: 25 mg/kg subcutaneous; for ED50: read-out: ED50, inhibition of phenyl-para-quinone induced writhing
# Excerpt: The compounds of the invention are primarily useful as analgesic, anticonvulsant and antidepressant agents. […] Exptl. Biol. Med., 95, 729 (1953)]. Listed below in Table I is the analgesic effect of some of the compounds of the invention, expressed as percent inhibition of phenyl-para-quinone induced writhing.
# [3] = tested on: ptosis of tetrabenazine-induced depression; test: inhibition of tetrabenazine-induced depression (ptosis) in mice (antidepressant); type: in vivo
# [4] = subcutaneous, mice, 50% inhibition
# [5] = Mus musculus, sc, subcutaneous, mice, 50% inhibition
compound,measurement,setting,value
"CN(C)CC[C@@]12CCCC[C@@H]1c1ccccc1O2.Cl (relative stereo) [cis-4a-(2-Dimethylaminoethyl)-1,2,3,4,4a,9b-Hexahydrodibenzofuran hydrochloride]",ED50,[1]; [4],22.4 mg/kg
same,inhibition in vivo at 25 mg/kg,"[2]; Mus musculus, sc, mice",67%
same,% Inhibition of the ptosis of tetrabenazine-induced depression,[3]; 20.0 mg/kg intraperitoneal,70%
"CNCC[C@@]12CCCC[C@@H]1c1ccccc1O2.Cl (relative stereo) [cis-1,2,3,4,4a,9b-Hexahydro-4a-(2-methylaminoethyl)dibenzofuran hydrochloride]",ED50,[1],41.7 mg/kg
same,ED50,"[2]; Mus musculus, sc",16.2 mg/kg
same,% Inhibition of the ptosis of tetrabenazine-induced depression,[3]; 20.0 mg/kg intraperitoneal,60%
"CN(CCc1ccccc1)CC[C@@]12CCCC[C@@H]1c1ccccc1O2 (relative stereo) [cis-1,2,3,4,4a,9b-Hexahydro-4a-[2-(N-methyl-N-phenethyl)aminoethyl]dibenzofuran hydrochloride]",inhibition in vivo at 25 mg/kg,"[2]; Mus musculus, sc, mice",63%
"CN(CCC[C@@]12CCCC[C@@H]1c1ccccc1O2)CCc1ccccc1.Cl (relative stereo) [cis-1,2,3,4,4a,9b-Hexahydro-4a-[3-(N-methyl-N-phenethylamino)propyl]dibenzofuran hydrochloride]","% Inhibition, anticonvulsant effect (supra maximal electroshock)","[1]; 25 mg/kg subcutaneous, mice",50%
same,ED50,[2]; [5],20.8 mg/kg
"CN(CCCOc1ccccc1)CC[C@@]12CCCC[C@@H]1c1ccccc1O2 (relative stereo) [Cis-1,2,3,4,4a,9b-hexahydro-4a-[2-{N-methyl-N-(3-phenoxypropyl)}aminoethyl]dibenzofuran oxalate]",inhibition in vivo at 25 mg/kg,"[2]; Mus musculus, sc, mice",65%
"CN(C)C[C@@]12CCCC[C@@H]1c1ccccc1O2.Cl (relative stereo) [Cis-1,2,3,4,4a,9b-hexahydro-4a-dimethylaminomethyldibenzofuran hydrochloride]",ED50,[2]; [5],21.7 mg/kg
"CN(CCCc1ccccc1)CCC[C@@]12CCCC[C@@H]1c1ccccc1O2 (relative stereo) [cis-1,2,3,4,4a,9b-Hexahydro-4a-[3-(N-(3-phenylpropyl)-N-methyl)aminopropyl]dibenzofuran oxalate hydrate]",inhibition in vivo at 25 mg/kg,"[2]; Mus musculus, sc, mice",37%
"c1ccc2c(c1)O[C@]1(CCCN3CCCCC3)CCCC[C@H]21 (relative stereo) [cis-1,2,3,4,4a,9b-hexahydro-4a-(3-piperidinopropyl)dibenzofuran oxalate]",inhibition in vivo at 25 mg/kg,"[2]; Mus musculus, sc, mice",64%
"CNC[C@@]12CCCC[C@@H]1c1ccccc1O2.Cl (relative stereo) [cis-1,2,3,4,4a,9b-Hexahydro-4a-methylaminomethyldibenzofuran hydrochloride]",ED50,[1]; [4],22.5 mg/kg
same,ED50,[2]; [5],25.8 mg/kg
"CN(C)CCC=C1c2ccccc2CCc2ccccc21 [Amitriptyline, reference compound]",% Inhibition of the ptosis of tetrabenazine-induced depression,"[3]; 2.0 mg/kg intraperitoneal, standard",50%
"CN1C(=O)CN=C(c2ccccc2)c2cc(Cl)ccc21 [Diazepam, reference compound]","% Inhibition, anticonvulsant effect (supra maximal electroshock)","[1]; 1.7 mg/kg subcutaneous, mice, standard",50%
"CN(C)CCC[C@@]12CCCC[C@@H]1c1ccccc1O2.Cl (relative stereo) [cis-4a-(Dimethylaminopropyl)-1,2,3,4,4a,9b-hexahydrodibenzofuran hydrochloride]",ED50,[1]; [4],28.1 mg/kg
same,ED50,[2]; [5],12.2 mg/kg
"CC(C)=CCN(C)CC[C@@]12CCCC[C@@H]1c1ccccc1O2 (relative stereo) [cis-1,2,3,4,4a,9b-Hexahydro-4a-[2-(N-(3-methyl-2-butenyl)-N-methyl)aminoethyl]dibenzofuran oxalate]",% Inhibition of the ptosis of tetrabenazine-induced depression,[3]; 20.0 mg/kg intraperitoneal,77%
"CCC(=O)O[C@](Cc1ccccc1)(c1ccccc1)[C@H](C)CN(C)C [propoxyphene, reference compound]",inhibition in vivo at 3.9 mg/kg,"[2]; Mus musculus, sc, read-out: % Inhibition of phenyl-para-quinone induced writhing",50%
"CNC1=Nc2ccc(Cl)cc2C(c2ccccc2)=[N+]([O-])C1 [Chlorodiazepoxide, reference compound]","% Inhibition, anticonvulsant effect (supra maximal electroshock)","[1]; 8.0 mg/kg subcutaneous, mice, standard",50%
"CNCCC[C@@]12CCCC[C@@H]1c1ccccc1O2 (relative stereo) [cis-1,2,3,4,4a,9b-Hexahydro-4a-(3-methylaminopropyl)dibenzofuran]",ED50,[1]; [4],27.7 mg/kg
same,inhibition in vivo at 25 mg/kg,"[2]; Mus musculus, sc, mice",58%
same,ED50,"[3]; Mus musculus, ip, intraperitoneal, 50% inhibition",5.9 mg/kg
"cis-1,2,3,4,4a,9b-Hexahydro-4a-[2-[N-(3-phenylpropyl)-N-methylamino]ethyl]dibenzofuran oxalate hemihydrate","ED50, inhibition of phenyl-para-quinone induced writhing",[2]; [4],7.3 mg/kg
"CN(CCC[C@@]12CCCC[C@@H]1c1ccccc1O2)Cc1ccco1 (relative stereo) [cis-1,2,3,4,4a,9b-Hexahydro-4a-[3-(N-methyl-N-furfuryl)aminopropyl]dibenzofuran oxalate hydrate]",inhibition in vivo at 25 mg/kg,"[2]; Mus musculus, sc, mice",61%
